Assays:
[1] = system: RKO p27 or p21 uninduced (proliferating) colon adenocarcinoma cells; test: Alamar Blue cell viability assay, RKO p27 or p21 uninduced (proliferating); type: cell-based; settings: Homo sapiens, RKOp27, 72 h, Table B2, anti-proliferative/cytotoxic activity, read-out: −log EC50 RKO p27 or p21 uninduced (proliferating) (converted)
Protocol: The anti-proliferative/cytotoxic activity of the compounds described herein can be tested on subclones of RKO human colon adenocarcinoma cells (Schmidt et al., Oncogene 19, 2423-2429; 2000) using the Alamar Blue cell viability assay (described in O'Brien et al. Eur J Biochem 267, 5421-5426, 2000). The compounds are dissolved as 10 mM solutions in DMSO and subsequently diluted in semi-logarithmic steps. DMSO dilutions are further diluted 1:100 into Dulbecco's modified Eagle's medium (DMEM) containing 10% fetal calf serum to a final concentration twice as much as the final concentration in the test. RKO subclones are seeded into 96 well flat bottom plates at a density of 4000 cells per well in a volume of 50 μl per well. 24 hours after seeding the 50 μl each of the compound dilutions in DMEM medium are added into each well of the 96 well plate. Each compound dilution is tested as triplicates. Wells containing untreated control cells are filled with 50 μl DMEM medium containing 1% DMSO. The cells are then incubated with the substances for 72 hours at 37° C. in a humidified atmosphere containing 5% carbon dioxide. To determine the viability of the cells, 10 μl of an Alamar Blue solution (Biosource) are added and the fluorescence is measured at an extinction of 544 nm and an emission of 590 nm. For the calculation of the cell viability the emission value from untreated cells is set as 100% viability and the emission rates of treated cells are set in relation to the values of untreated cells. Viabilities are expressed as % values. The Graphpad Prism program is used for the calculation of EC50 values for anti-proliferative/cytotoxic activity out of the obtained dose-response curves.
(§1) To determine the cell cycle specific mode of action, subclones of RKO colon adenocarcinoma cells (RKOp21 or RKOp27 as described by Schmidt et al. in Oncogene 19, 2423-2429; 2000) are seeded into 96 well flat bottom plates at a density of 16000 cells per well in a volume of 50 μl per well in DMEM growth medium with 10% FCS containing 10 μM Ponasterone A. 24 hours after seeding the 50 μl each of the compound dilutions in DMEM medium are added into each well of the 96-well plate. Each compound dilution is tested as triplicates. Wells containing untreated control cells are filled with 50 μl DMEM medium containing 1% DMSO. The cells are then incubated with the substances for 72 hours at 37° C. in a humidified atmosphere containing 5% carbon dioxide. To determine the viability of the cells, 10 μl of an Alamar Blue solution (Biosource) are added and the fluorescence is measured at an extinction of 544 nm and an emission of 590 nm. For the calculation of the cell viability the emission value from untreated cells is set as 100% viability and the emission rates of treated cells are set in relation to the values of untreated cells. Viabilities are expressed as % values. The Graphpad Prism program (GraphPad Software, Inc) is used for the calculation of EC50 values out of the obtained dose-response curves. Viability is compared of proliferating cells grown in the absence of the inducer Ponasterone A, versus viability of cells arrested by the expression of ectopic p27Kip1 induced by Ponasterone A.
(§2) Representative values for anti-proliferation/cytotoxicity [measured as −log EC50 (mol/l)] determined in the aforementioned assays follow from the following tables B1, B2 and B3, in which the numbers of the compounds correspond to the numbers of the examples.

[2] = system: RKO p27 or p21 induced (arrested) colon adenocarcinoma cells; test: Alamar Blue cell viability assay, RKO p27 or p21 induced (arrested); type: cell-based; settings: Homo sapiens, RKOp27, Table B2, cells arrested by Ponasterone A, 72 hours, read-out: −log EC50 RKO p27 or p21 induced (arrested) (converted)
Protocol: as §1, §2

| EC50 [2] [nM] | Compound | EC50 [1] [nM] |
| --- | --- | --- |
| ≥ 3160 | COc1ccc2[nH]c3c(c2c1)C[C@@]1(C)C(=O)N(CCCN(C)C(C)C)C(=O)N1[C@@H]3c1cccc(O)c1 (racemic) [Example 94, (3aSR,10RS)-10-(3-Hydroxy-phenyl)-2-[3-(isopropyl-methyl-amino)-propyl]-6-methoxy-3a-methyl-3a,4,9,10-tetrahydro-2,9,10a-triaza-cyclopenta[b]fluorene-1,3-dione] | ≤ 39.8 |
| ≥ 316 | COc1ccc2[nH]c3c(c2c1)C[C@@]1(C)C(=O)N(CCCN2CCC(C)CC2)C(=O)N1[C@@H]3c1cccc(O)c1 (racemic) [Example 112, (3aSR,10RS)-10-(3-Hydroxy-phenyl)-6-methoxy-3a-methyl-2-[3-(4-methyl-piperidin-1-yl)-propyl]-3a,4,9,10-tetrahydro-2,9,10a-triaza-cyclopenta[b]fluorene-1,3-dione] | ≤ 39.8 |
| ≥ 3160 | COc1ccc2[nH]c3c(c2c1)C[C@@]1(C)C(=O)N(CCCNC2CCC2)C(=O)N1[C@@H]3c1cccc(O)c1 (racemic) [Example 86, (3aSR,10RS)-2-(3-Cyclobutylamino-propyl)-10-(3-hydroxy-phenyl)-6-methoxy-3a-methyl-3a,4,9,10-tetrahydro-2,9,10a-triaza-cyclopenta[b]fluorene-1,3-dione] | ≤ 39.8 |
| ≥ 3160 | COc1ccc2[nH]c3c(c2c1)C[C@@]1(C)C(=O)N(CCCN2CCCC2)C(=O)N1[C@@H]3c1cccc(O)c1 (racemic) [Example 96, (3aSR,10RS)-10-(3-Hydroxy-phenyl)-6-methoxy-3a-methyl-2-(3-pyrrolidin-1-yl-propyl)-3a,4,9,10-tetrahydro-2,9,10a-triaza-cyclopenta[b]fluorene-1,3-dione] | ≤ 39.8 |
| ≥ 316 | C#CCNCCN1C(=O)N2[C@H](c3cccc(O)c3)c3[nH]c4ccc(Cl)cc4c3C[C@@]2(C)C1=O (racemic) [Example 127, (3aSR,10RS)-6-Chloro-10-(3-hydroxy-phenyl)-3a-methyl-2-(2-prop-2-ynylamino-ethyl)-3a,4,9,10-tetrahydro-2,9,10a-triaza-cyclopenta[b]fluorene-1,3-dione] | ≤ 39.8 |
| ≥ 316 | C=CCNCCN1C(=O)N2[C@H](c3cccc(O)c3)c3[nH]c4ccc(Cl)cc4c3C[C@@]2(C)C1=O (racemic) [Example 115, (3aSR,10RS)-2-(2-Allylamino-ethyl)-6-chloro-10-(3-hydroxy-phenyl)-3a-methyl-3a,4,9,10-tetrahydro-2,9,10a-triaza-cyclopenta[b]fluorene-1,3-dione] | ≤ 39.8 |
| ≥ 3160 | CCN(CCO)CCCN1C(=O)N2[C@H](c3cccc(O)c3)c3[nH]c4ccc(OC)cc4c3C[C@@]2(C)C1=O (racemic) [Example 89, (3aSR,10RS)-2-{3-[Ethyl-(2-hydroxy-ethyl)-amino]-propyl}-10-(3-hydroxy-phenyl)-6-methoxy-3a-methyl-3a,4,9,10-tetrahydro-2,9,10a-triaza-cyclopenta[b]fluorene-1,3-dione] | ≤ 39.8 |
| ≥ 3160 | COc1ccc2[nH]c3c(c2c1)C[C@@]1(C)C(=O)N(CCNCC(F)F)C(=O)N1[C@@H]3c1cccc(O)c1 (racemic) [Example 73, (3aSR,10RS)-2-[2-(2,2-Difluoro-ethylamino)-ethyl]-10-(3-hydroxy-phenyl)-6-methoxy-3a-methyl-3a,4,9,10-tetrahydro-2,9,10a-triaza-cyclopenta[b]fluorene-1,3-dione] | 39.8 to 251 |
| ≥ 3160 | COc1ccc2[nH]c3c(c2c1)C[C@@]1(C)C(=O)N(CCN2CCCCCC2)C(=O)N1[C@@H]3c1cccc(O)c1 (racemic) [Example 74, (3aSR,10RS)-2-(2-Azepan-1-yl-ethyl)-10-(3-hydroxy-phenyl)-6-methoxy-3a-methyl-3a,4,9,10-tetrahydro-2,9,10a-triaza-cyclopenta[b]fluorene-1,3-dione] | ≤ 39.8 |
